Values quoted from earlier work, collected in patent US20050260263A1, “Sustained release formulation for sparingly soluble main drugs” (Panion & BF Biotech Inc., priority 2004, published 2005).
Read-outs that look alike come from different tables or passages of the source.

Row | Solubility (gastric fluid) | Solubility (region of the lower intestine (pH 6 to 8)) | Solubility (upper region of the small intestine (pH 5.0)) | Solubility (water) | Structure (SMILES)
1 | very soluble | poorly soluble | fairly soluble |  | CC[C@H]1OC(=O)[C@H](C)[C@@H](O[C@H]2C[C@@](C)(OC)[C@@H](O)[C@H](C)O2)[C@H](C)[C@@H](O[C@@H]2O[C@H](C)C[C@H](N(C)C)[C@H]2O)[C@](C)(OC)C[C@@H](C)C(=O)[C@H](C)[C@@H](O)[C@]1(C)O [clarithromycin]
2 |  |  |  | only slightly soluble | CC[C@H]1OC(=O)[C@H](C)[C@@H](O[C@H]2C[C@@](C)(OC)[C@@H](O)[C@H](C)O2)[C@H](C)[C@@H](O[C@@H]2O[C@H](C)C[C@H](N(C)C)[C@H]2O)[C@](C)(O)C[C@@H](C)C(=O)[C@H](C)[C@@H](O)[C@]1(C)O [Erythromycin]
